Molecular target: T1, sigma-2 receptor (S2R) (Homo sapiens, UniProt Q5BJF2)
T1 construct: gene TMEM97
Assay: radioligand displacement ([3H]-ditolylguanidine, […], with […] (+)pentazocine to mask S1R)
Type: binding

T1 sequence (Q5BJF2 whole entry): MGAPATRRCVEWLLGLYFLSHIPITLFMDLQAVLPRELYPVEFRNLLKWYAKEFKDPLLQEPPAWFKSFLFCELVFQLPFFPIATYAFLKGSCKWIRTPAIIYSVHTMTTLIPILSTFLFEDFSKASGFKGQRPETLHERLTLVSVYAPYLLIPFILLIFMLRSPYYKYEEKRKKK

O=C(CCCCCNc1ccc([N+](=O)[O-])c2nonc12)Oc1ccc(CC2CCN(CC3CSC4(CCCCC4)S3)CC2)cc1 (stereo not shown) [BS148-fluo, 4-((1-((1,4-dithiaspiro[4.5]decane-2-yl)methyl)piperidin-4-yl)methyl)phenyl-6-((7-nitrobenzo[c][1,2,5]oxadiazol-4-yl)amino)hexanoate]
pKi S2R ^a ± SD: 7.00 ± 0.11 pKi
